# Measured values as given in PubChem BioAssay AID2384 (Southern Research Specialized Biocontainment Screening …, 2010).
# Where “and” joins values, the source holds several entries; their conditions need not be identical. Equal entries are not always repeated.
# System: S. typhi GFP reporter counter-screen, fluorescence, 4 h
# Assay: inhibitors in S. typhi counter-screen strain, dose response, counter-screen for PhoP regulon inhibitor project, fluorescence, 4 h (AID 2384)
row,Compound,IC50
1,CC(C)(c1ccccc1)c1ccc(OCCCN2CCNCC2)cc1,39.7 µM
2,COc1ccc(OCc2n(CC(=O)OC3CC(C)CCC3C(C)C)c3ccccc3[n+]2C)cc1 (centres undefined),36.6 µM
3,S=C(Nc1ccc(Cl)c(Cl)c1)NC1CCN(Cc2ccccc2)CC1,37.8 µM
4,CC1CCN(CCOCCOc2ccc(Br)cc2Cl)CC1,97.8 µM
5,C/C(=N\NC(=O)c1ccc(CN2CCc3ccccc3C2)cc1)c1ccccc1O,51.8 µM
6,Oc1ccc(CN2CCN(c3ccccc3)CC2)c2cccnc12,99.6 µM
7,O=c1cc(-c2ccc(O)cc2)oc2c(O)c(O)c(O)c(O)c12,35.6 µM
8,C#CCOCCOCCOCCNc1nc(N2CCN(C(=O)CCCCCCCCCCNC(=O)[C@H](CCCCN)n3cc(CCO)nn3)CC2)nc(N2CCN(C(=O)CCCCCCCCCCNC(=O)[C@H](CCCN=C(N)N)n3cc(C[C@@H](C)CC)nn3)CC2)n1,18.1 µM
9,CN1CCN(c2nc3cc(C(F)(F)F)ccc3n3cccc23)CC1,42.4 µM
10,COc1ccc(/C=N/Nc2cc(C)nc3ccccc23)cc1,29.2 µM
11,Clc1ccc2[nH]c3c(c2c1)CCc1cn[nH]c1-3,105 µM
12,Oc1cccc(C=NCc2ccccc2)c1O,73.7 µM
13,CN1CCN(CCCN2c3ccccc3Sc3ccc(C(F)(F)F)cc32)CC1,36.6 µM
14,CCOC(=O)N/N=C(/C)c1ccc([N+](=O)[O-])o1,73.6 µM
15,CN1CC=C(/C=C/c2ccc(-c3ccccc3)cc2)CC1,23.7 µM
16,NC1=NC2(CCCCC2)N=C(Nc2ccc(Br)cc2)N1,35.9 µM
17,Clc1ccc(CNCc2cccs2)cc1Cl,45.4 µM
18,CCn1cc(C(=O)O)c(=O)c2cc(F)c(N3CCN(C(=S)NC(=O)c4cc(OC)cc(OC)c4)CC3)cc21,143 µM
19,C/C(=N\NC(=O)c1ccc(Cl)cc1)c1ccccn1,28.9 µM
20,Clc1ccc(OCCCNCc2ccccc2)c2ccccc12,18.3 µM
21,O[C@@H](c1cc(C(F)(F)F)nc2c(C(F)(F)F)cccc12)[C@H]1CCCCN1,37.8 µM

row,Compound,IC50
1,CCn1cc(C(=O)NCCO)c(=O)c2cc(F)c(N3CCN(C)CC3)cc21,27.7 µM
2,O=C(Cn1cncn1)N/N=C/c1ccccc1O,150 µM
3,COc1ccc(OCC(O)CNc2ccc(Br)cc2)cc1 (centres undefined),3.74 µM
4,Cc1nc(N)nc(N)c1CCCc1ccc(Cl)c(Cl)c1,31.5 µM
5,NC(N)=Nc1nc(-c2ccccc2)c2cc(Cl)ccc2n1,90.2 µM
6,CCCCCCOC(=O)C[N+](C)(C)CCOC1CC2CCC1(C)C2(C)C (centres undefined),27 µM
7,CCCCCCCCCCCCCCCC[n+]1ccc(/C=N/O)cc1,36.9 µM
8,CN(C)c1ccc2nc3ccc(=[N+](C)C)cc-3sc2c1,45.3 µM
9,CCN1CCN(C(=O)c2cc3cc(Cl)ccc3[nH]2)CC1,30.4 µM
10,Cc1ccc(C)c(NC(=O)CCC(=O)N/N=C/c2cc([N+](=O)[O-])ccc2O)c1,47.1 µM
11,Nc1nc2ccccc2n1Cc1ccc(Cl)c(Cl)c1,74.7 µM
12,CCn1cc(C(=O)O)c(=O)c2cc(F)c(N3CCN(C(=S)NC(=O)c4cccc(C)c4)CC3)cc21,37.8 µM
13,CCC(C)N1CCC2(CC1)N=c1c(c3c4c5c(C)c(O)c3c(O)c1=NC(=O)C(C)=CC=C[C@H](C)[C@H](O)[C@@H](C)[C@@H](O)[C@@H](C)[C@H](OC(C)=O)[C@H](C)[C@@H](OC)C=CO[C@@](C)(O5)C4=O)N2 (some centres undefined),5.31 µM
14,O=C(CNC(=O)c1ccccc1)N/N=C/c1ccc([N+](=O)[O-])s1,28.7 µM
15,OC(CNCC1CCCO1)Cn1c2ccc(Cl)cc2c2cc(Cl)ccc21 (centres undefined),23.7 µM
16,CN(Cc1ccccc1)CC(O)COc1ccc(CNCc2ccc(Cl)s2)cc1 (centres undefined),30.4 µM
17,Cc1ccc2c(c1)C1CN(C)CCC1N2Sc1ccccc1[N+](=O)[O-] (centres undefined),37.9 µM
18,Cc1cc(N2CCC(C)CC2)nc(NCc2ccccc2)n1,51.8 µM
19,COc1ccc(Nc2cc(C)nc(NCc3ccccc3)n2)cc1,38.5 µM
20,O=C(CCN1CCOCC1)N/N=C/c1cc(Br)cc(Br)c1O,27.3 µM
21,O=C1C=C(Nc2ccccc2O)c2ccccc2C1=O,101 µM

row,Compound,IC50
1,NCC/C=C1/c2ccccc2CSc2ccccc21,146 µM
2,Cc1ccc2c(c1)c1c(n2CC(O)CN2CCC(C)CC2)CCCC1 (centres undefined),82.4 µM
3,CCOc1cccc(CNCCc2c(C)[nH]c3ccc(OC(F)(F)F)cc23)c1O,31.2 µM
4,c1cnc2c(c1)ccc1cccnc12,35 µM and 31.3 µM
5,O=C(Oc1c(Br)cc([N+](=O)[O-])cc1Br)c1cccnc1,28.5 µM
6,O=C(CCN1Cc2ccccc2C1)c1ccc2c(c1)OCCO2,137 µM
7,Cc1ccc2nc(NCc3ccccc3)[nH]c2c1,35.2 µM
8,Cc1cccc(Nc2c3c(nc4ccccc24)CCC3)c1,60.3 µM
9,COc1ccc(CCN2CCC(Nc3nc4ccccc4n3Cc3ccc(F)cc3)CC2)cc1,29.4 µM
10,CN(C)C1C(=O)C(C(N)=O)=C(O)C2(O)C(=O)C3=C(O)c4c(O)cccc4C(C)(O)C3CC12 (centres undefined),1.71 µM
11,Cc1ccc2nc(N(CCCN(C)C)C(=O)c3sc4ccccc4c3Cl)sc2c1,24.3 µM
12,Cc1cccn2c(=O)c(C=O)c(Cl)nc12,145 µM
13,Cc1ccc(Nc2cc(C)nn2-c2nc(C)cc(=O)[nH]2)cc1,11.2 µM
14,Cc1ccc(C(=O)N/C(=C\c2ccc(-c3ccc(Br)cc3)o2)C(=O)NCCCN(C)C)cc1,37.4 µM
15,Cc1ccc(C(=O)N/N=C\c2sccc2C)cn1,136 µM
16,O=C(Nc1cccc(N=Cc2cc(Cl)cc(Br)c2O)c1)c1ccco1,60 µM
17,O=C(CCN1CCN(c2ccccc2)CC1)N/N=C/c1ccc([N+](=O)[O-])o1,131 µM
18,O=C(Cc1ccccc1)NNC(=S)NC(=O)c1cccs1,32.3 µM
19,O=C1CSC(=S)N1c1cccnc1,78.8 µM
20,Cc1cc(NC(=O)c2ccc3[nH]c(C)c(C)c3c2)ccn1,65.5 µM
21,CN1CCN(c2ccc(NC(=O)CSc3ccccc3)cc2F)CC1,104 µM

row,Compound,IC50
1,CC[C@@H](C)[C@H](CN[C@H](CNC)C(C)C)NC[C@@H](C)c1ccc(CC(C)C)cc1,26.2 µM
2,C[C@H]1O[C@@H](n2cc(F)c(=O)[nH]c2=O)[C@H](O)[C@@H]1O,63.7 µM
3,CN(C)CCNc1oc(COc2ccc(-c3ccccc3)cc2)nc1C#N,39 µM
4,N/C(=N\OS(=O)(=O)c1ccc2ccccc2c1)c1cccnc1,17.3 µM
5,Clc1ccc(OCCCNCc2ccccc2)c(Br)c1,28.4 µM
6,O=C(Cc1ccc([N+](=O)[O-])cc1)N/N=C/c1ccc([N+](=O)[O-])o1,20.9 µM
7,CCCCNCCCOc1cccc(Cl)c1Cl,58.5 µM
8,CCn1cc(C(=O)O)c(=O)c2ccc(C)nc21,83.7 µM
9,COc1ccc(Nc2cc(C)c3c(O)cccc3n2)cc1,24.9 µM
10,c1ccc(CN2CCN(c3ncnc4c3[nH]c3ccccc34)CC2)cc1,73.8 µM
11,Nc1nc(N)c(Cc2ccc(Cl)cc2Cl)c(N)n1,61.8 µM
12,CC(=O)NC(c1ccc2ccccc2c1)c1ccc2cccnc2c1O (centres undefined),66.7 µM
13,Cc1ccc(C(OCC(O)CNCc2ccc(F)cc2)c2ccccc2)cc1 (centres undefined),37 µM
14,Cc1cc(C)c2c(N)c3ccccc3nc2n1,84.7 µM
15,c1ccc(CN2CCN(c3nc(NCc4ccco4)c4ccccc4n3)CC2)cc1,64.6 µM
16,Cc1ccc2c(c1)c1c(n2CC(O)CNC2CCCCC2)CCCC1 (centres undefined),87.1 µM
17,COc1ccc(CNCCc2cccc(F)c2)c2ccccc12,61.2 µM
18,O=C(CC(=O)c1cc(Cl)ccc1O)c1ccccc1,26.8 µM
19,O=C(CCN1CCN(C(=O)c2ccccc2)CC1)c1ccc(Br)cc1,81.6 µM
20,Cc1cccc(Nc2cc(C)c3c(O)cccc3n2)c1C,34 µM
21,O=C(N=Nc1c(O)[nH]c2ccccc12)c1cc(-c2cccs2)[nH]n1,81.4 µM
